What all share (assay): Cancer cell growth inhibition, SRB dye assay (single agents and 50:50 IC50 mixtures)
Format in all cases: cell-based, human
(In general: The SRB assay estimates cell density from bound dye.)

Assay [1] has as its system K562 cell line. The conditions noted are these: Homo sapiens, 144 h, Example 6, value used to make up 50:50 IC50 mixtures, read-out: IC50 values used in assay. The protocol: (§1) Cancer cells were seeded the day before application of drug in triplicate or quadruplicate in 96-well plates, allowed to grow in the presence of drug for 6 days before cell growth relative to untreated control wells was determined with a dye assay.
(§2) Cells were seeded in triplicate or quadruplicate at 3-4,000 per microtitre well in 90 μl of RPMI culture medium/10% foetal calf serum/penicillin, streptomycin mix, treated with 10 μl of drug (prepared in a dilution plate at 10× concentration required), and allowed to grow until the controls were nearly confluent (6 days).
(§3) SRB: Plates were washed with PBS, fixed with methylated spirits, washed with tap water and stained with 50 μL/well of SRB solution (sulforhodamine, 0.4% in 1% acetic acid), followed by washing with tap water and 1% acetic acid, solubilisation in Tris and absorbance read at 564 nm in an ELISA reader.
(§4) Data was collected using ELISA plate reader software—SOFTmax PRO3.1.2, then imported into EXCEL. The mean and SD of replicates were calculated as a % of control, after subtraction of the blank value (wells with no cells). A graph was plotted of % control vs dose of agent and IC50 (half maximal inhibitory concentration) values determined.
(§5) Tumour cells were seeded in duplicate in 96-well plates at 2-5,000 per microtitre well containing RPMI culture medium/10% foetal calf serum. The cells were allowed to grow until the controls were nearly confluent after 5-6 days. Plates were then washed with PBS, fixed in ethanol and stained with 50 μL/well of SRB solution (sulforhodamine, 0.4% in 1% acetic acid), followed by washing with 1% acetic acid and solubilisation in Tris. The absorbance was read at 564 nm using an ELISA reader.
(§6) The IC50, or concentration required to inhibit cell growth by 50%, was determined from the percentage inhibition versus concentration data using the probit calculation methods of Finney (Finney D J (1971). Probit Analysis. 3rd Edition. Cambridge University Press).
(§7) The inhibitory data from each mixture was used to determine an IC50 of IC50 value, where the concentrations used were the Multiplying Factor values. In order to determine the actual IC50 contribution of each component in the two-component mixture, the IC50 of IC50 value was multiplied by the IC50 of the individual component. This can then be used to determine the reduction in IC50 contribution (ie, reduction in dose) of the chemotherapeutic agent due to the presence of the steroid saponin in the mixture. A simpler way of determining the reduction in dose is to use the following simple formula: […]
The cell seeding and ELISA plate methodology of Example 2 were used for determining inhibition of the K562 cell line.

Assay [2] has as its system A549 cell line. The conditions noted are these: Homo sapiens, 144 h, Example 4, value used to make up 50:50 IC50 mixtures, read-out: IC50 values used in assay. The protocol:
as §1, §2, §3, §4, §5, §6, §7

Assay [3] deals with LNCap cell line. As for the experimental part:
(§8) Cancer cells were seeded the day before application of drug in triplicate or quadruplicate in 96-well plates, allowed to grow in the presence of drug for 6 days before cell growth relative to untreated control wells was determined with a dye assay. Cells were seeded in triplicate or quadruplicate at 3-4,000 per microtitre well in 90 μl of RPMI culture medium/10% foetal calf serum/penicillin, streptomycin mix, treated with 10 μl of drug (prepared in a dilution plate at 10× concentration required), and allowed to grow until the controls were nearly confluent (6 days). SRB: Plates were washed with PBS, fixed with methylated spirits, washed with tap water and stained with 50 μL/well of SRB solution (sulforhodamine, 0.4% in 1% acetic acid), followed by washing with tap water and 1% acetic acid, solubilisation in Tris and absorbance read at 564 nm in an ELISA reader. Data was collected using ELISA plate reader software—SOFTmax PRO3.1.2, then imported into EXCEL. The mean and SD of replicates were calculated as a % of control, after subtraction of the blank value (wells with no cells). A graph was plotted of % control vs dose of agent and IC50 (half maximal inhibitory concentration) values determined. […] The cells were allowed to grow until the controls were nearly confluent after 5-6 days. Plates were then washed with PBS, fixed in ethanol and stained with 50 μL/well of SRB solution (sulforhodamine, 0.4% in 1% acetic acid), followed by washing with 1% acetic acid and solubilisation in Tris. The absorbance was read at 564 nm using an ELISA reader. […] Cambridge University Press). […] The inhibitory data from each mixture was used to determine an IC50 of IC50 value, where the concentrations used were the Multiplying Factor values. In order to determine the actual IC50 contribution of each component in the two-component mixture, the IC50 of IC50 value was multiplied by the IC50 of the individual component. This can then be used to determine the reduction in IC50 contribution (ie, reduction in dose) of the chemotherapeutic agent due to the presence of the steroid saponin in the mixture. A simpler way of determining the reduction in dose is to use the following simple formula: […]

For assay [4], the system named is MCF7 cell line. As for the experimental part:
as §8

Where [5] appears, read: 50:50 IC50 mixture vs vincristine alone, Example 3.
Where [6] appears, read: Homo sapiens, 144 h, Example 3, value used to make up 50:50 IC50 mixtures, read-out: IC50 values used in assay.

These results are taken from patent US9358247B2, “Methods and compositions for promoting activity of anti-cancer therapies” (Oncology Research International Limited, priority 2006, dated 2016).

A word on the IC50: it is the concentration that gives 50% inhibition.

Consider `C[C@@H]1CC[C@@]2(OC1)O[C@H]1C[C@H]3[C@@H]4CC=C5C[C@@H](O[C@@H]6O[C@H](CO)[C@@H](O[C@@H]7O[C@H](CO)[C@@H](O)[C@H](O)[C@H]7O)[C@H](O)[C@H]6O[C@@H]6O[C@@H](C)[C@H](O)[C@@H](O)[C@H]6O)CC[C@]5(C)[C@H]4CC[C@]3(C)[C@H]1[C@@H]2C` [Deltonin, diosgenin Rha2, [Glc4], Glc], for which the half-inhibitory concentration (IC50) in assay [1], in assay [2], in assay [3] (setting [6]) and in assay [4] (setting [6]) was 1000 nM in each case. In addition, the “Vincristine Dose Reduction” value in assay [3] (setting [5]) and in assay [4] (setting [5]) was “consistent reduction in dosage” each time.
